Experimental data published in BindingDB's records for doi:10.1021/jm040190e (National Institute On Drug Abuse-Intramural Research Program, 2005).

test: Mitogenic stimulation or antagonism of 30 nM quinpirole-stimulated mitogenesis in CHO cells expressing human dopamine D3 receptor

| Compound | IC50 [nM] |
| --- | --- |
| O=C(NCCCCN1CCN(c2cccc(Cl)c2Cl)CC1)c1ccc(-c2ccccn2)cc1 [N-{4-[4-(2,3-Dichloro-phenyl)-piperazin-1-yl]-butyl}-4-pyridin-2-yl-benzamide] | 6.31 |
| O=C(NC/C=C/CN1CCN(c2cccc(Cl)c2Cl)CC1)c1ccc2c(c1)Cc1ccccc1-2 [N-(4-(4-(2,3-dichlorophenyl)piperazin-1-yl)but-2-enyl)-9H-fluorene-2-carboxamide] | 173 |
| O=C(NC/C=C/CN1CCN(c2cccc(Cl)c2Cl)CC1)c1ccc(I)cc1 [N-{4-[4-(2,3-Dichloro-phenyl)-piperazin-1-yl]-but-2-enyl}-4-iodo-benzamide] | 24.1 |

Stronger by IC50, values ahead:

| IC50 [nM] | Compound |
| --- | --- |
| 2.2 | O=C(NC/C=C/CN1CCN(c2cccc(Cl)c2Cl)CC1)c1ccc([N+](=O)[O-])cc1 [N-{(E)-4-[4-(2,3-Dichloro-phenyl)-piperazin-1-yl]-but-2-enyl}-4-nitro-benzamide] |
| 1 | O=C(NC/C=C/CN1CCN(c2cccc(Cl)c2Cl)CC1)c1ccc(O)cc1 [N-{4-[4-(2,3-Dichloro-phenyl)-piperazin-1-yl]-but-2-enyl}-4-hydroxy-benzamide] |
| 4.79 | COc1ccc(C(=O)NC/C=C/CN2CCN(c3cccc(Cl)c3Cl)CC2)cc1 [N-{4-[4-(2,3-Dichloro-phenyl)-piperazin-1-yl]-but-2-enyl}-4-methoxy-benzamide] |
